Some results are limits rather than exact numbers.

For the experiment, the system named is C666-1 cells. Put plainly: C666-1 Cell Viability Assay (Resazurin cytotoxicity test). Format: cell-based. The settings on record: Homo sapiens, C6661, EB virus-positive C666-1 cells, 72 hours treatment, 100-0.78 micromole/L, read-out: Inhibitory Rate. As for the experimental part:
In order to evaluate the inhibitory effect of the small molecular compound of the present disclosure on EBNA1 at the cellular level, a cytotoxicity test was performed.
As mentioned in the Background of the present disclosure, nasopharyngeal carcinoma is a kind of disease highly associated with latent infection of EB virus. EB virus in latent state only expresses limited proteins to maintain its genome replication, among which EBNA1 protein is an essential functional protein. Studies have confirmed that inhibition of EBNA1 can reduce the proliferation of the corresponding nasopharyngeal carcinoma cells or kill them. Therefore, EB virus-positive nasopharyngeal carcinoma tumor cells (C666-1 cells) are selected for test to verify the effect of the small molecular compound of the present disclosure.
During testing, 100 microliters of different cell lines were inoculated onto a transparent 96-well plate, and 5×10^3 cells were inoculated in each well for C666-1 cells. After the cells were cultured in an incubator under […] at 37° C. for 24 hours, 10 microliters of compound with a concentration ranging from 1 mmol/L to 7.8 micromol/L were added to each well (8 points, double dilution, the final concentration was 100-0.78 micromole/L), and treated in the incubator under carbon dioxide at 37° C. for 72 hours. Cell viability was assessed using the redox indicator Resazurin. After addition of 10 microliters of 600 micromole/liter Resazurin to each well and incubation at 37° C. for 3 hours. Using a Tecan microplate reader, the fluorescence signals were detected at an […]. A software was used to fit the inhibition curve and calculate half-maximal effect concentration (EC50). The selectivity of compound activity was assessed by comparing the EC50 values of EB virus-positive and EB virus-negative cell lines.
A general note: Alamar Blue is a resazurin reagent that responds to reducing activity.
For `COC(=O)c1cccc(N2CC(Oc3ccc(NC(=O)Nc4cccnc4)cc3)C2)c1-c1ccccc1` [Example 42, methyl 6-(3-(4-(3-(pyridin-3-yl)ureido)phenoxy)azetidin-1-yl)-[1,1′-biphenyl]-2-carboxylate], the EC50 is under 1 µM. In the case of `COC(=O)c1cccc(C#Cc2ccc(NC(=O)Nc3cccnc3)cc2)c1-c1cccc(OCCO)c1` [Example 57, methyl 3′-(2-hydroxyethoxy)-6-((4-(3-(pyridin-3-yl)ureido)phenyl)ethynyl)-[1,1′-biphenyl]-2-carboxylate] it was 1 to 10 µM; in that of `O=C(Cc1ccc(C#Cc2cccc(C(=O)O)c2-c2ccccc2)cc1)Nc1cccnc1` [Example 60a, 6-((4-(2-oxo-2-(pyridin-3-ylamino)ethyl)phenyl)ethynyl)-[1,1′-biphenyl]-2-carboxylic acid], under 1 µM. In the case of `O=C(Cc1ccc(C#Cc2cccc(C(=O)NO)c2-c2ccccc2)cc1)Nc1cccnc1` [Example 60b, N-hydroxy-6-((4-(2-oxo-2-(pyridin-3-ylamino)ethyl)phenyl)ethynyl)-[1,1′-biphenyl]-2-carboxamide] it was under 1 µM; in that of `COC(=O)c1cccc(N2CC(Oc3ccc(CNc4cccnc4)cc3)C2)c1-n1cccc1` [Example 23, methyl 3-(3-(4-((pyridin-3-ylamino)methyl)phenoxy)azetidin-1-yl)-2-(1H-pyrrol-1-yl) benzoate], 10 to 50 µM; in that of `COC(=O)c1cccc(N2CC(Oc3ccc(COc4cncnc4)cc3)C2)c1-n1cccc1` [Example 14, methyl 3-(3-(4-((pyrimidin-5-yloxy)methyl)phenoxy)azetidin-1-yl)-2-(1H-pyrrol-1-yl) benzoate], 1 to 10 µM. In the case of `O=C(Nc1ccc(OC2CN(c3cccc(C(=O)NO)c3-n3cccc3)C2)cc1)Nc1cccc(C(F)(F)F)c1` [Example 10b, N-hydroxy-2-(1H-pyrrol-1-yl)-3-(3-(4-(3-(3-(trifluoromethyl)phenyl)ureido)phenoxy)azetidin-1-yl) benzamide] it was 1 to 10 µM; in that of `O=C(Cc1ccc(OC2CN(c3cccc(C(=O)O)c3-c3ccccc3)C2)cc1)Nc1cccnc1` [Example 40a, 6-(3-(4-(2-oxo-2-(pyridin-3-ylamino)ethyl)phenoxy)azetidin-1-yl)-[1,1′-biphenyl]-2-carboxylic acid], 1 to 10 µM. As to `COC(=O)c1cccc(C#Cc2ccc(NC(=O)Cc3cccnc3)cc2)c1-c1ccccc1` [Example 62, methyl 6-((4-(2-(pyridin-3-yl)acetamido)phenyl)ethynyl)-[1,1′-biphenyl]-2-carboxylate], the EC50 was under 1 µM. In the case of `O=C(O)c1cccc(N2CC(Oc3ccc(COc4cncnc4)cc3)C2)c1-n1cccc1` [Example 14a, 3-(3-(4-((pyrimidin-5-yloxy)methyl)phenoxy)azetidin-1-yl)-2-(1H-pyrrol-1-yl) benzoic acid], the EC50 is 1 to 10 µM. In the case of `O=C(O)c1cccc(N2CC(Oc3ccc(COc4cccnc4)c(F)c3)C2)c1-n1cccc1` [Example 20a, 3-(3-(3-fluoro-4-((pyridin-3-yloxy)methyl)phenoxy)azetidin-1-yl)-2-(1H-pyrrol-1-yl) benzoic acid], the EC50 lay within 10 to 50 µM.

As for `CNC(=O)c1cccc(N2CC(Oc3ccc(COc4cccnc4)cc3)C2)c1-n1cccc1` [Example 1d, N-methyl-3-(3-(4-((pyridin-3-yloxy)methyl)phenoxy)azetidin-1-yl)-2-(1H-pyrrol-1-yl) benzamide], the EC50 was under 1 µM.

`O=C(NO)c1cccc(N2CC(Oc3ccc(COc4cccnc4)cc3)C2)c1-n1cccc1` [Example 1c, N-hydroxy-3-(3-(4-((pyridin-3-yloxy)methyl)phenoxy)azetidin-1-yl)-2-(1H-pyrrole-1-yl) benzamide]: the EC50 is under 1 µM. In the case of `O=C(O)c1cccc(N2CC(Oc3ccc(COc4cccnc4)c(Cl)c3)C2)c1-n1cccc1` [Example 19a, 3-(3-(3-chloro-4-((pyridin-3-yloxy)methyl)phenoxy)azetidin-1-yl)-2-(1H-pyrrol-1-yl) benzoic acid] it was 10 to 50 µM. In the case of `Cc1cc(OC2CN(c3cccc(C(=O)O)c3-n3cccc3)C2)ccc1COc1cccnc1` [Example 15a, 3-(3-(3-methyl-4-((pyridin-3-yloxy)methyl)phenoxy)azetidin-1-yl)-2-(1H-pyrrol-1-yl) benzoic acid], the EC50 fell in the range of 10 to 50 µM. As to `O=C(Cc1cccnc1)Nc1ccc(OC2CN(c3cccc(C(=O)O)c3-c3ccccc3)C2)cc1` [Example 45a, 6-(3-(4-(2-(pyridin-3-yl)acetamido)phenoxy)azetidin-1-yl)-[1,1′-biphenyl]-2-carboxylic acid], the EC50 is 10 to 50 µM. On to `O=C(O)c1cccc(N2CC(Oc3ccc(OCc4cccnc4)cc3)C2)c1-n1cccc1` [Example 24a, 3-(3-(4-(pyridin-3-ylmethoxy)phenoxy)azetidin-1-yl)-2-(1H-pyrrol-1-yl) benzoic acid], for which the EC50 lay within 10 to 50 µM. As to `COC(=O)c1cccc(N2CC(Oc3ccc(COc4cccnc4)c(C)c3)C2)c1-n1cccc1` [Example 15, methyl 3-(3-(3-methyl-4-((pyridin-3-yloxy)methyl)phenoxy)azetidin-1-yl)-2-(1H-pyrrol-1-yl) benzoate], the EC50 lay in the range of 10 to 50 µM. Take `O=C(Nc1ccc(OC2CN(c3cccc(C(=O)O)c3-c3ccccc3)C2)cc1)Nc1cccnc1` [Example 42a, 6-(3-(4-(3-(pyridin-3-yl)ureido)phenoxy)azetidin-1-yl)-[1,1′-biphenyl]-2-carboxylic acid]: the EC50 was in the range of 1 to 10 µM. In the case of `COC(=O)c1cccc(N2CC(Oc3ccc(COc4cncc(OC)c4)cc3)C2)c1-n1cccc1` [Example 6, methyl 3-(3-(4-(((5-methoxypyridin-3-yl)oxy)methyl)phenoxy)azetidin-1-yl)-2-(1H-pyrrol-1-yl) benzoate], the EC50 was over 50 µM. In the case of `COC(=O)c1cccc(N2CC(Oc3ccc(CC(=O)Nc4cccnc4)cc3)C2)c1-c1ccccc1` [Example 40, methyl 6-(3-(4-(2-oxo-2-(pyridin-3-ylamino)ethyl)phenoxy)azetidin-1-yl)-[1,1′-biphenyl]-2-carboxylate] it was under 1 µM; in that of `COC(=O)c1cccc(N2CC(Oc3ccc(NC(=O)Nc4cncc(F)c4)cc3)C2)c1-n1cccc1` [Example 46, methyl 3-(3-(4-(3-(5-fluoropyridin-3-yl)ureido)phenoxy)azetidin-1-yl)-2-(1H-pyrrol-1-yl) benzoate], 1 to 10 µM. As to `CCOC(=O)c1cccc(N2CC(Oc3ccc(COc4cccnc4)cc3)C2)c1-n1cccc1` [Example 1b, ethyl 3-(3-(4-((pyridin-3-yloxy)methyl)phenoxy)azetidin-1-yl)-2-(1H-pyrrol-1-yl) benzoate], the EC50 was under 1 µM.

On to `O=C(Cc1ccc(OC2CN(c3cccc(C(=O)O)c3-c3ccc4cc[nH]c4c3)C2)cc1)Nc1cccnc1` [Example 44a, 2-(1H-indol-6-yl)-3-(3-(4-(2-oxo-2-(pyridin-3-ylamino)ethyl)phenoxy)azetidin-1-yl) benzoic acid], for which the EC50 lay in the range of 1 to 10 µM. In the case of `O=C(Nc1ccc(C#Cc2cccc(C(=O)O)c2-c2ccc3cc[nH]c3c2)cc1)Nc1cccnc1` [Example 59a, 2-(1H-indol-6-yl)-3-((4-(3-(pyridin-3-yl)ureido)phenyl)ethynyl) benzoic acid] it was under 1 µM; in that of `COC(=O)c1cccc(N2CC(Oc3ccc(CC(=O)Nc4cccnc4)cc3)C2)c1-c1ccc2cc[nH]c2c1` [Example 44, methyl 2-(1H-indol-6-yl)-3-(3-(4-(2-oxo-2-(pyridin-3-ylamino)ethyl)phenoxy)azetidin-1-yl) benzoate], under 1 µM. In the case of `O=C(Nc1ccc(C#Cc2cccc(C(=O)O)c2-c2ccccc2)cc1)Nc1cccnc1` [Example 58a, 6-((4-(3-(pyridin-3-yl)ureido)phenyl)ethynyl)-[1,1′-biphenyl]-2-carboxylic acid], the EC50 lay in the range of 1 to 10 µM.

`COC(=O)c1cccc(N2CC(Oc3ccc(NC(=O)Cc4cccnc4)cc3)C2)c1Cl` [Example 55, methyl 2-chloro-3-(3-(4-(2-(pyridin-3-yl)acetamido)phenoxy)azetidin-1-yl) benzoate]: the EC50 was in the range of 1 to 10 µM.

With `O=C(Nc1ccc(OC2CN(c3cccc(C(=O)O)c3-c3cccc(Cl)c3)C2)cc1)Nc1cccnc1` [Example 41a, 3′-chloro-6-(3-(4-(3-(pyridin-3-yl)ureido)phenoxy)azetidin-1-yl)-[1,1′-biphenyl]-2-carboxylic acid], the EC50 was in the range of 1 to 10 µM. Regarding `O=C(O)c1cccc(N2CC(Oc3ccc(COc4ccsn4)cc3)C2)c1-n1cccc1` [Example 33a, 3-(3-(4-((isothiazol-3-yloxy)methyl)phenoxy)azetidin-1-yl)-2-(1H-pyrrol-1-yl) benzoic acid], the EC50 is over 50 µM. Regarding `O=C(Nc1ccc(C#Cc2cccc(C(=O)NO)c2-c2ccccc2)cc1)Nc1cccnc1` [Example 58b, N-hydroxy-6-((4-(3-(pyridin-3-yl)ureido)phenyl)ethynyl)-[1,1′-biphenyl]-2-carboxamide], the EC50 was under 1 µM. In the case of `COC(=O)c1cccc(N2CC(Oc3ccc(Oc4cccnc4)cc3)C2)c1-n1cccc1` [Example 25, methyl 3-(3-(4-(pyridin-3-yloxy)phenoxy)azetidin-1-yl)-2-(1H-pyrrol-1-yl) benzoate] it was over 50 µM.

Source of the values: US20240308987A1, “SMALL MOLECULE INHIBITOR AGAINST NASOPHARYNGEAL CARCINOMA, PREPARATION METHOD AND APPLICATION THEREOF” (SHENZHEN BAY LABORATORY, priority 2021, published 2024).
